From ChEMBL document CHEMBL1154336, “The discovery and optimisation of benzazepine sulfonamide and sulfones as potent agonists of the motilin receptor” (Bioorg Med Chem Lett, 2009)
≈ marks a conversion by molar mass, not a printed value. One block for each molecule: values may come before it.

Key:
Motilin receptor = Motilin receptor (Homo sapiens, UniProt O43193); experiment: Agonist activity at human recombinant motilin receptor expressed in CHO cells by FLIPR assay; type: functional, cell-based
[1] = molecular target: T1, Growth hormone secretagogue receptor type 1 (Homo sapiens, UniProt Q92847); experiment: Agonist activity at human ghrelin receptor; type: functional
Stomach [2] = experiment: Increase in electric field stimulated contractile response in New Zealand White rabbit gastric antrum at 1 uM after 60 mins; type: functional; conditions: Oryctolagus cuniculus, 1 h
[3] = molecular target: T1, Growth hormone secretagogue receptor type 1; experiment: Intrinsic activity at human ghrelin receptor relative to ghrelin
Cytochrome P450 3A4 [4] = molecular target: T2, Cytochrome P450 3A4 (Homo sapiens, UniProt P08684); experiment: Inhibition of human recombinant CYP3A4 using diethoxyfluorescein as substrate; type: ADME
[5] = Tmax in mouse at 10 mg/kg, po; type: ADME, organism-based; design: dose 10 mg/kg, route oral; conditions: in vivo
D(2) dopamine receptor = D(2) dopamine receptor (Homo sapiens, UniProt P14416); experiment: Agonist activity at dopamine D2 receptor; type: functional
[6] = Cmax in mouse at 10 mg/kg, po; type: ADME, organism-based; design: dose 10 mg/kg, route oral; conditions: in vivo
[7] = molecular target: 5-hydroxytryptamine receptor 6 (Homo sapiens, UniProt P50406); experiment: Agonist activity at 5HT6 receptor; type: functional
D(3) dopamine receptor = D(3) dopamine receptor (Homo sapiens, UniProt P35462); experiment: Agonist activity at dopamine D3 receptor; type: functional
Cytochrome P450 2C19 = Cytochrome P450 2C19 (Homo sapiens, UniProt P33261); experiment: Inhibition of human recombinant CYP2C19; type: ADME
[8] = Half life in mouse at 10 mg/kg, po; type: ADME, organism-based; design: dose 10 mg/kg, route oral; conditions: in vivo
Cytochrome P450 2D6 = Cytochrome P450 2D6 (Homo sapiens, UniProt P10635); experiment: Inhibition of human recombinant CYP2D6; type: ADME
Cytochrome P450 3A4 [9] = molecular target: T2, Cytochrome P450 3A4; experiment: Inhibition of human recombinant CYP3A4 using 7-{3-(4-phenylpiperazin-1-ylmethyl)benzyl}resorufin as substrate; type: ADME
Liver microsomes [10] = experiment: Intrinsic clearance in rat liver microsomes after 30 mins; type: ADME, Microsome; conditions: 0.5 h
Cytochrome P450 1A2 = molecular target: T3, Cytochrome P450 1A2 (Homo sapiens, UniProt P05177); experiment: Inhibition of human recombinant CYP1A2; type: ADME
T3 sequence (P05177 whole entry): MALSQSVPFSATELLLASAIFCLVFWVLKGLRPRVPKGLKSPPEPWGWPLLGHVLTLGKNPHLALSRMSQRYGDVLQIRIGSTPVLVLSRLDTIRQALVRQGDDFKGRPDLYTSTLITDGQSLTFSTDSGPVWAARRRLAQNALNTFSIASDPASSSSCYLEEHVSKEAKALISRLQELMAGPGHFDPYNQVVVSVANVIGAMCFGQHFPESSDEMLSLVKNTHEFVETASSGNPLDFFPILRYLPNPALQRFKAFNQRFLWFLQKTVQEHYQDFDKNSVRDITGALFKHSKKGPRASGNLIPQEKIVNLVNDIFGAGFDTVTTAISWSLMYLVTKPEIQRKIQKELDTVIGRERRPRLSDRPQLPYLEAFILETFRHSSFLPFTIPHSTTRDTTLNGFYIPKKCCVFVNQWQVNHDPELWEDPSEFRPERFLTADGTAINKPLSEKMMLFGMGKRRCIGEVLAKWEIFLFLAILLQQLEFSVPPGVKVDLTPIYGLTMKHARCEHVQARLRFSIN

Liver microsomes [11] = experiment: Intrinsic clearance in human liver microsomes after 30 mins; type: ADME, Microsome; conditions: 0.5 h
[12] = molecular target: Voltage-gated inwardly rectifying potassium channel KCNH2 (Homo sapiens, UniProt Q12809); experiment: Inhibition of human ERG
[13] = Aqueous solubility at pH 7.4; type: physicochemical
Stomach [14] = experiment: Increase in electric field stimulated contractile response in New Zealand White rabbit gastric antrum at 3 uM after 60 mins; type: functional; conditions: Oryctolagus cuniculus, 1 h
Cytochrome P450 2C9 = Cytochrome P450 2C9 (Homo sapiens, UniProt P11712); experiment: Inhibition of human recombinant CYP2C9; type: ADME
Cytochrome P450 2C9, sequence (P11712 whole entry): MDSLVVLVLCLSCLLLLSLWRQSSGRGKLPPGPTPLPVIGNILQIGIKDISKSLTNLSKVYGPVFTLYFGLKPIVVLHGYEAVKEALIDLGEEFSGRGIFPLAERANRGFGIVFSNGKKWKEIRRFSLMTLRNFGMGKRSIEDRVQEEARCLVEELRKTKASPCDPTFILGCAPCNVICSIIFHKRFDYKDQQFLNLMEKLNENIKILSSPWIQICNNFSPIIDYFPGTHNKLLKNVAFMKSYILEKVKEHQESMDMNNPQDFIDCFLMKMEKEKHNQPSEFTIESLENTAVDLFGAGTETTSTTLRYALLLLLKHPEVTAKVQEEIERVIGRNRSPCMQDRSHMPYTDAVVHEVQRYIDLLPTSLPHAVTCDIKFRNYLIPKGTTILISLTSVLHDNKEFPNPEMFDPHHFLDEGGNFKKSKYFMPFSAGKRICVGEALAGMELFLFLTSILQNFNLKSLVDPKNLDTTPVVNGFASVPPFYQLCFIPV

T1 sequence (Q92847 whole entry): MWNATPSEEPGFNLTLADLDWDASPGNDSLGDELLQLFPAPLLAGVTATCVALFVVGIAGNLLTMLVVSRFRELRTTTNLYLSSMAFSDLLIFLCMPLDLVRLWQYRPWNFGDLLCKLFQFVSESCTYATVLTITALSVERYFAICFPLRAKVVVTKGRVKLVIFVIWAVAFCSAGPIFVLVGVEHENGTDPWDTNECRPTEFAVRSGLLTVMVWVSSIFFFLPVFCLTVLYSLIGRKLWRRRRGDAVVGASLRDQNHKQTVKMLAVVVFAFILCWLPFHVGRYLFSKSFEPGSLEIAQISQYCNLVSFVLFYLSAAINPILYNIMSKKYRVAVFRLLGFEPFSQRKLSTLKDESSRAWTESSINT
D(2) dopamine receptor, sequence (P14416 whole entry): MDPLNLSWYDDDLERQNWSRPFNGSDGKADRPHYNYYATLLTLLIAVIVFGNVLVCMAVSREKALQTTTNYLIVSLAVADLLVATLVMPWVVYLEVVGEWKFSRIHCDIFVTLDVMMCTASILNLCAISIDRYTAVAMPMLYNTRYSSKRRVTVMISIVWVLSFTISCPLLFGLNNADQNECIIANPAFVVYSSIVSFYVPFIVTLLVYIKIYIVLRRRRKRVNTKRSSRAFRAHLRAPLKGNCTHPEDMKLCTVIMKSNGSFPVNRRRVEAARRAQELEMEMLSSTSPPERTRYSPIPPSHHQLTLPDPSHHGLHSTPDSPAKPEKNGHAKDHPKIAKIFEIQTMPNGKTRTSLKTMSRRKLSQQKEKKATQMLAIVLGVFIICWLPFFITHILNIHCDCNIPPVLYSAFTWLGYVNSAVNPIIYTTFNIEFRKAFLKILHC
Motilin receptor, sequence (O43193 whole entry): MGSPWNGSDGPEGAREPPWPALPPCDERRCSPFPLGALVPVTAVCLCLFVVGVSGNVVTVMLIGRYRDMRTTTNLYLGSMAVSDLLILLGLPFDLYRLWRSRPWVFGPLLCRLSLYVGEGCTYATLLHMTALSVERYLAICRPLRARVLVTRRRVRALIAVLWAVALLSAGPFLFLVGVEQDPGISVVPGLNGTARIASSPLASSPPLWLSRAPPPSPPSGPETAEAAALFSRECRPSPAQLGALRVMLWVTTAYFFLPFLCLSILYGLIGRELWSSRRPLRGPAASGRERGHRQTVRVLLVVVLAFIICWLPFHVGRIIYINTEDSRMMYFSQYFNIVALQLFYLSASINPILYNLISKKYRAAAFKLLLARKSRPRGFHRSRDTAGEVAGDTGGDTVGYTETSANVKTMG
Cytochrome P450 2D6, sequence (P10635 whole entry): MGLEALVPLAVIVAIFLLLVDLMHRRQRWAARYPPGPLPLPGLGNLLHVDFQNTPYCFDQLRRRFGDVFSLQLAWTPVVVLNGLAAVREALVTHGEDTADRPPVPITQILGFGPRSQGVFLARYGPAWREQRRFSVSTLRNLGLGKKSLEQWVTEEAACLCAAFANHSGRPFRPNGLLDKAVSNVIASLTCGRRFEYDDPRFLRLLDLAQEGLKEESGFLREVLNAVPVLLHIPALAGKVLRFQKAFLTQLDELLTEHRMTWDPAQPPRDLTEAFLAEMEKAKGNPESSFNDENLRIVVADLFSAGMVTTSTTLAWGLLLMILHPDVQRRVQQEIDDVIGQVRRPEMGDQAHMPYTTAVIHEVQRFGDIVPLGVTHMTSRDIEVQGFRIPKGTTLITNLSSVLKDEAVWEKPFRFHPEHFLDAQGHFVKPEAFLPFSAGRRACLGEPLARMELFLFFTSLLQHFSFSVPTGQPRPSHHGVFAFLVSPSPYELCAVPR
5-hydroxytryptamine receptor 6, sequence (P50406 whole entry): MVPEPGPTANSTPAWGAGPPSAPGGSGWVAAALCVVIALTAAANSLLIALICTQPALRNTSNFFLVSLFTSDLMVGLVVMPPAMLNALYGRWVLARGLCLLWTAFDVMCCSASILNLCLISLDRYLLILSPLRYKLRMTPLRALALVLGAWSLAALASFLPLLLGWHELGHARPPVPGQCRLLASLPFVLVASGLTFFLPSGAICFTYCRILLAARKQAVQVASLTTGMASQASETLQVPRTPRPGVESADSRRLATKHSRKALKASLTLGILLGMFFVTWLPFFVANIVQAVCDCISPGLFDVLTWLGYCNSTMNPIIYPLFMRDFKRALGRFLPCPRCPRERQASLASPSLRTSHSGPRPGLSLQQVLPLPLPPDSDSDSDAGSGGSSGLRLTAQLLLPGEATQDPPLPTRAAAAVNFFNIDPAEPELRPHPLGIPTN
D(3) dopamine receptor, sequence (P35462 whole entry): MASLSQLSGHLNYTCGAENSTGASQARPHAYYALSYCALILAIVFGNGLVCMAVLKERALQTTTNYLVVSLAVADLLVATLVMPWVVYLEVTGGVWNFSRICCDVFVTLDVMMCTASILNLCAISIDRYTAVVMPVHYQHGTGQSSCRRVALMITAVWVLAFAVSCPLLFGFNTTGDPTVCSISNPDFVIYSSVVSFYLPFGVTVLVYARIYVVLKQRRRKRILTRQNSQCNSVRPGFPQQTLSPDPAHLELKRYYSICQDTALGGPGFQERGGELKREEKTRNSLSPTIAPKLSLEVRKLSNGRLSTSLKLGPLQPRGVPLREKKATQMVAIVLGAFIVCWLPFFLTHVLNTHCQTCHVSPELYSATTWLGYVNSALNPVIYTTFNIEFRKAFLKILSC
T2 sequence (P08684 whole entry): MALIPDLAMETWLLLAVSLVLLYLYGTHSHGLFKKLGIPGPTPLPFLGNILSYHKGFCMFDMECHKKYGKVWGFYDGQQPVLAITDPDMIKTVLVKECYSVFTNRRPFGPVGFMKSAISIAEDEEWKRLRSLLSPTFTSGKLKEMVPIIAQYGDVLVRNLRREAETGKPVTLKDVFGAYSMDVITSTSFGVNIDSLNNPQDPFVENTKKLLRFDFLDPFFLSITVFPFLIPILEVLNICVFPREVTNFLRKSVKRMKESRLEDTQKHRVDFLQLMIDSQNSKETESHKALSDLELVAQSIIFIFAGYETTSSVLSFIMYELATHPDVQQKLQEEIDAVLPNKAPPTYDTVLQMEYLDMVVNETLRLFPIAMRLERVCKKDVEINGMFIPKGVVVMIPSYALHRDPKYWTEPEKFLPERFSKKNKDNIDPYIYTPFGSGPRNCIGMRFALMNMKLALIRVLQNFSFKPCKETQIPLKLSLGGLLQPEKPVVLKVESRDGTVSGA
Voltage-gated inwardly rectifying potassium channel KCNH2, sequence (Q12809 whole entry): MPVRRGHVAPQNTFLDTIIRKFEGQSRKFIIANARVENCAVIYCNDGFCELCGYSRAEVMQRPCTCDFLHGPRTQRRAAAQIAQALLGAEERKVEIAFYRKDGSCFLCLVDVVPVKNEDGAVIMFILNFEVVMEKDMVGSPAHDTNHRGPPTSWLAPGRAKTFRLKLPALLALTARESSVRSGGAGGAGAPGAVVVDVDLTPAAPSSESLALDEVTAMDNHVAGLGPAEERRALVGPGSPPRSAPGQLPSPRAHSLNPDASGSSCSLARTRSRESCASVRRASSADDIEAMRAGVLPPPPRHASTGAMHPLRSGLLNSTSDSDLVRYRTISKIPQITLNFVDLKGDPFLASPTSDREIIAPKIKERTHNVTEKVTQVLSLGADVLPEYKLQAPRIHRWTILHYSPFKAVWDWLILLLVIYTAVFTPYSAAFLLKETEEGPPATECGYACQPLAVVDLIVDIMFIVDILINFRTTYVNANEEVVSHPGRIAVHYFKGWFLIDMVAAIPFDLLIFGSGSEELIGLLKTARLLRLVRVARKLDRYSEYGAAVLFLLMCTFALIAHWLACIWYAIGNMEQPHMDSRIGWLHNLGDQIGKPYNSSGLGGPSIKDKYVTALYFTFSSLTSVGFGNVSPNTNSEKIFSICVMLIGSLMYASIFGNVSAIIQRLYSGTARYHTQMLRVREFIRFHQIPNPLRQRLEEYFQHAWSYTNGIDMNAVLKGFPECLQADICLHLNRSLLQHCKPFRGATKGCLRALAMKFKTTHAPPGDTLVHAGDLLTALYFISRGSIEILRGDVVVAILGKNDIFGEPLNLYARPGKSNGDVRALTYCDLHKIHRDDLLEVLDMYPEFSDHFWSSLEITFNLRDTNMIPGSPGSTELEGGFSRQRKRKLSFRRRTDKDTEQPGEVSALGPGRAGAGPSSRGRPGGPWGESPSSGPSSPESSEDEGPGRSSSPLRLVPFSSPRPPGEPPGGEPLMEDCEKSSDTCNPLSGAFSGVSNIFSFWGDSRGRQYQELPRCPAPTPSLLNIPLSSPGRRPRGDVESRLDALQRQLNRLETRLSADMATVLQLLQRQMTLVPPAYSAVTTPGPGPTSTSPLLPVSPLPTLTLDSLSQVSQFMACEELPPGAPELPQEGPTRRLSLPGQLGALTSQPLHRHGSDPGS

Structure (SMILES): CCCCc1ccc(S(=O)(=O)Nc2ccc3c(c2)CCNCC3)cc1
EC50 (Motilin receptor): 1580 nM

Structure (SMILES): CC(C)(C)c1ccc(S(=O)(=O)Cc2ccc3c(c2)CCNCC3)cc1
EC50 [1]: > 10000 nM
EC50 (Motilin receptor): 3160 nM

Structure (SMILES): CCCCc1ccc(S(=O)(=O)Nc2ccc3c(c2)CCN(Cc2cc[nH]n2)CC3)cc1
Emax at 1 µM (Stomach [2]): 47%
Intrinsic activity [3]: 0.7

Structure (SMILES): CCCCc1ccc(S(=O)(=O)Nc2ccc3c(c2)CCN(Cc2cccc(NC(C)=O)c2)CC3)cc1
EC50 [1]: > 10000 nM
EC50 (Motilin receptor): 501 nM

Structure (SMILES): CCCCc1ccc(S(=O)(=O)Nc2ccc3c(c2)CCN(C2CCCC2)CC3)cc1
EC50 [1]: > 1000 nM
EC50 (Motilin receptor): 200 nM

Structure (SMILES): CC(C)Oc1ccc(S(=O)(=O)Cc2ccc3c(c2)CCNCC3)cn1
EC50 [1]: > 1000 nM
IC50 (Cytochrome P450 2D6): 1600 nM
EC50 (Motilin receptor): 158 nM

Structure (SMILES): O=S(=O)(Nc1ccc2c(c1)CCN(Cc1cc[nH]n1)CC2)c1ccc(Cl)cc1
EC50 [1]: > 10000 nM
EC50 (Motilin receptor): 794 nM

Structure (SMILES): O=C(Nc1ccc2c(c1)CCNCC2)c1ccc(N2CCOCC2)nc1
EC50 (Motilin receptor): > 12600 nM

Structure (SMILES): CN(Cc1ccc2c(c1)CCNCC2)C(=O)c1ccc(N2CCOCC2)nc1
EC50 (Motilin receptor): > 12600 nM

Structure (SMILES): CCCCc1ccc(S(=O)(=O)N(C)c2ccc3c(c2)CCNCC3)cc1
EC50 (Motilin receptor): 2510 nM

Structure (SMILES): O=S(=O)(Cc1ccc2c(c1)CCNCC2)c1ccc(N2CCOCC2)nc1
EC50 [1]: > 1000 nM
IC50 (Cytochrome P450 2D6): 16000 nM
CL (Liver microsomes [10]): < 1 mL/min/g
EC50 (Motilin receptor): 501 nM
CL (Liver microsomes [11]): < 0.5 mL/min/g

Structure (SMILES): CCCCc1ccc(S(=O)(=O)Nc2ccc3c(c2)CCN(CC2CCOC2)CC3)cc1 (stereo unspecified)
EC50 [1]: > 1000 nM
EC50 (Motilin receptor): 2000 nM

Structure (SMILES): CCCCc1ccc(S(=O)(=O)Nc2ccc3c(c2)CCN(Cc2ccccc2)CC3)cc1
EC50 (Motilin receptor): > 3160 nM

Structure (SMILES): N#Cc1ccc(S(=O)(=O)Nc2ccc3c(c2)CCN(Cc2cc[nH]n2)CC3)cc1
IC50 (Cytochrome P450 2C9): 2500 nM
IC50 (Cytochrome P450 2D6): 7900 nM
EC50 (Motilin receptor): 7940 nM

Structure (SMILES): O=C(Nc1ccc(F)cc1)c1ccc(S(=O)(=O)Cc2ccc3c(c2)CCNCC3)cn1
EC50 (Motilin receptor): 2000 nM

The next lines start with results.

IC50 (Cytochrome P450 3A4 [4]): > 8000 nM
Tmax [5]: 2 h
Ki (D(2) dopamine receptor): > 3160 nM
Cmax [6]: 273 ng/mL
Ki [7]: 631 nM
Ki (D(3) dopamine receptor): 631 nM
IC50 (Cytochrome P450 2C19): > 8000 nM
EC50 [1]: > 1000 nM
half-life [8]: 1.5 h
IC50 (Cytochrome P450 2D6): < 1000 nM
IC50 (Cytochrome P450 3A4 [9]): > 8000 nM
CL (Liver microsomes [10]): 3.8 mL/min/g
EC50 (Motilin receptor): 6.31 nM
IC50 (Cytochrome P450 1A2): > 8000 nM
CL (Liver microsomes [11]): 6.6 mL/min/g
solubility [13]: 371 µg/mL (≈ 792 µM)
Structure (SMILES): O=S(=O)(Nc1ccc2c(c1)CCN(Cc1cc[nH]n1)CC2)c1ccc(N2CCOCC2)nc1
IC50 [12]: > 15800 nM

Ki (D(2) dopamine receptor): 398 nM
Ki [7]: 6.31 nM
Ki (D(3) dopamine receptor): 100 nM
EC50 [1]: 79.4 nM
EC50 (Motilin receptor): 39.8 nM
Structure (SMILES): Cc1ccc(S(=O)(=O)Nc2ccc3c(c2)CCN(Cc2ccn[nH]2)CC3)cc1Cl

Intrinsic activity [3]: 0.5
EC50 [1]: 20 nM
EC50 (Motilin receptor): 63.1 nM
Structure (SMILES): CCCCc1ccc(S(=O)(=O)Nc2ccc3c(c2)CCN(Cc2cnc(C)[nH]2)CC3)cc1

EC50 [1]: > 10000 nM
IC50 (Cytochrome P450 2D6): < 100 nM
CL (Liver microsomes [10]): < 0.5 mL/min/g
EC50 (Motilin receptor): 20 nM
CL (Liver microsomes [11]): < 1 mL/min/g
Structure (SMILES): O=S(=O)(Cc1ccc2c(c1)CCNCC2)c1ccc(-c2ccc(Cl)cc2)cc1

EC50 [1]: > 10000 nM
IC50 (Cytochrome P450 2D6): 200 nM
CL (Liver microsomes [10]): < 1 mL/min/g
EC50 (Motilin receptor): 12.6 nM
CL (Liver microsomes [11]): < 1 mL/min/g
Structure (SMILES): O=S(=O)(Cc1ccc2c(c1)CCNCC2)c1ccc(-c2ccc(F)cc2)cc1
Emax at 3 µM (Stomach [14]): 166%

EC50 [1]: > 1000 nM
EC50 (Motilin receptor): 50.1 nM
Structure (SMILES): CCCCc1ccc(S(=O)(=O)Nc2ccc3c(c2)CCN(Cc2ccc(NC(C)=O)s2)CC3)cc1

EC50 (Motilin receptor): 126 nM
Structure (SMILES): CCCCc1ccc(S(=O)(=O)Cc2ccc3c(c2)CCNCC3)cc1

Ki (D(2) dopamine receptor): > 1000 nM
Ki [7]: 15.8 nM
Ki (D(3) dopamine receptor): 631 nM
EC50 [1]: > 10000 nM
EC50 (Motilin receptor): 31.6 nM
Structure (SMILES): CN1CCOc2cc(S(=O)(=O)Nc3ccc4c(c3)CCN(Cc3cc[nH]n3)CC4)ccc21

Intrinsic activity [3]: 0.4
EC50 [1]: 3.98 nM
EC50 (Motilin receptor): 7.94 nM
Structure (SMILES): CCCCc1ccc(S(=O)(=O)Nc2ccc3c(c2)CCN(Cc2cnc[nH]2)CC3)cc1

Intrinsic activity [3]: 0.6
EC50 [1]: 3.98 nM
EC50 (Motilin receptor): 3.16 nM
Structure (SMILES): CCCCc1ccc(S(=O)(=O)Nc2ccc3c(c2)CCN(Cc2[nH]cnc2C)CC3)cc1

Intrinsic activity [3]: 0.6
Ki (D(2) dopamine receptor): 631 nM
Ki [7]: 200 nM
Ki (D(3) dopamine receptor): 20 nM
EC50 [1]: 158 nM
IC50 (Cytochrome P450 2D6): 1300 nM
EC50 (Motilin receptor): 3.98 nM
Structure (SMILES): CC(C)Oc1ccc(S(=O)(=O)Nc2ccc3c(c2)CCN(Cc2cc[nH]n2)CC3)cc1
